Key:
[1] = test system: preretinal neovascularization (NV) in the rat model of oxygen-induced retinopathy; test: Rat model of oxygen-induced retinopathy (OIR), single intravitreal injection; format: in vivo
Description: METHODS: Pregnant Sprague-Dawley rats were received at 14 days gestation and subsequently gave birth on Day 22±1 of gestation. Immediately following parturition, pups were pooled and randomized into separate litters (n=17 pups/litter), placed into separate shoebox cages inside oxygen delivery chamber, and subjected to an oxygen-exposure profile from Day 0-14 postpartum. Litters were then placed into room air from Day 14/0 through Day 14/6 (days 14-20 postpartum). Additionally on Day 14/0, each pup was randomly assigned as an oxygen-exposed control or into various treatment groups. For those randomized into an injection treatment group: one eye received a 5 μl intravitreal injection of 0.1%, 0.3%, 0.6%, or 1% RTKi and the contralateral eye received a 5 μl intravitreal injection of vehicle. At Day 14/6 (20 days postpartum), all animals in both studies were euthanized.
Immediately following euthanasia, retinas from all rat pups were harvested, fixed in 10% neutral buffered formalin for 24 hours, subjected to ADPase staining, and fixed onto slides as whole mounts. Digital images were acquired from each retinal flat mount that was adequately prepared. Computerized image analysis was used to obtain a NV clockhour score from each readable sample. Each clockhour out of 12 total per retina was assessed for the presence or absence of preretinal NV. Statistical comparisons using median scores for NV clockhours from each treatment group were utilized in nonparametric analyses. Each noninjected pup represented one NV score by taking the average value of both eyes and was used in comparisons against each dosage group. Because the pups were randomly assigned and no difference was observed between oxygen-exposed control pups from all litters, the NV scores were combined for all treatment groups. P≦0.05 was considered statistically significant.

[2] = test system: VEGF-induced retinal vascular permeability; test: VEGF-induced retinal vascular permeability in the rat (Evans blue), intravitreal injection; format: in vivo; conditions: 10 μl intravitreal
Method: METHODS: Adult Sprague-Dawley rats were anesthetized with intramuscular ketamine/xylazine and their pupils dilated with topical cycloplegics. Rats were randomly assigned to intravitreal injection groups of 0% 0.3%, 1.0%, and 3.0% RTKI and a positive control. Ten μl of each compound was intravitreally injected in each treatment eye (n=6 eyes per group). Three days following first intravitreal injection, all animals received an intravitreal injection of 10 μl 1400 ng hr VEGF in both eyes. Twenty-four hours post-injection of VEGF, intravenous infusion of 3% Evans blue dye was performed in all animals, where 50 mg/kg of Evans blue dye was injected via the lateral tail vein during general anesthesia. After the dye had circulated for 90 minutes, the rats were euthanized. The rats were then systemically perfused with balanced salt solution, and then both eyes of each rat were immediately enucleated and the retinas harvested using a surgical microscope. After measurement of the retinal wet weight, the Evans blue dye was extracted by placing the retina in a 0.2 ml formamide (Sigma) and then the homogenized and ultracentrifuged. Blood samples were centrifuged and the plasma diluted 100 fold in formamide. For both retina and plasma samples, 60 μl of supernatant was used to measure the Evans blue dye absorbance (ABS) with at 620/740 nm. The blood-retinal barrier breakdown and subsequent retinal vascular permeability as measured by dye absorbance were calculated as means ±s.e.m. of net ABS/wet weight/plasma ABS. A two-tailed Student's t-test were used for pair wise comparisons between OS and OD eyes in each group. One way ANOVA was used to determine an overall difference between treatment means, where P≦0.05 was considered significant.

Structure (SMILES): Cc1ccc(F)c(NC(=O)Nc2ccc(-c3cccc4[nH]nc(N)c34)cc2)c1 [Compound 86, N-[4-[3-amino-1H-indazol-4-yl]phenyl]-N′-(2-fluoro-5-methylphenyl)urea]
- efficacy against preretinal NV ([1]; 0.1% treated eyes): Efficacy was not observed
- inhibition of preretinal NV vs vehicle-injected and control noninjected eyes ([1]; 0.3-1% RTKi): significant inhibition of preretinal NV
- inhibition of preretinal neovascularization (NV) ([1]; single intravitreal injection, rat OIR (FIG. 1)): inhibits preretinal neovascularization (NV)
- decrease of retinal vascular permeability vs vehicle-injected eyes ([2]; 0.3% RTKi): 50%
- decrease of retinal vascular permeability vs vehicle-injected eyes ([2]; 1.0% RTKi): 61%
- decrease of retinal vascular permeability vs vehicle-injected eyes ([2]; 3% RTKi): 53%

— patent US20090105245A1, “METHODS FOR TREATING MACULAR EDEMA AND OCULAR ANGIOGENESIS USING AN ANTI-INFLAMMATORY AGENT AND A RECEPTOR TYROSINE KINASE INHIBITOR” (priority 2006, published 2009)
